From patent publication US12077503B2, “Substituted cyclic amides and their use as herbicides” (FMC CORPORATION, priority 2015, dated 2024)

Columns and labels:
Assay type in all cases: in vivo
[1] = tested on: wheat (Triticum aestivum); assay: Test A postemergence; conditions: Triticum aestivum, post-emergence, 240 h, 125 g ai/ha, postemergence; visual injury on 0 to 100 scale (0 no effect, 100 complete control), approx. 10 d; read-out: Wheat plant response rating
Summary of the method: (§1)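 Visual injury, scored on a 0–100 scale relative to untreated controls, was recorded about 10 d after application. Treatments were a preemergence soil spray over planted seeds or a postemergence spray on plants at the one- to two-leaf stage, 2 to 10 cm tall, all in loam soil–sand blend in the greenhouse.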

[2] = tested on: giant foxtail (Setaria faberii); assay: Test A postemergence; conditions: Setaria faberi, post-emergence, 240 h, postemergence, approx. 10 d; for pest or weed control at 125 g/ha: 125 g ai/ha, visual injury on 0 to 100 scale (0 no effect, 100 complete control), read-out: Foxtail, Giant plant response rating; for pest or weed control at 500 g/ha: 500 g ai/ha, visual injury, 0 to 100 scale (0 no effect, 100 complete control), read-out: Plant response rating, Foxtail, Giant
Summary of the method: as §1

[3] = tested on: ryegrass, Italian (Italian ryegrass, Lolium multiflorum); assay: Test A postemergence; conditions: Lolium multiflorum, post-emergence, 240 h, 125 g ai/ha, postemergence; visual injury on 0 to 100 scale (0 no effect, 100 complete control), approx. 10 d; read-out: Ryegrass, Italian plant response rating
Summary of the method: as §1

[4] = tested on: ragweed (common ragweed, Ambrosia elatior); assay: Test A postemergence; conditions: Ambrosia artemisiifolia, post-emergence, 240 h, 125 g ai/ha, postemergence; visual injury on 0 to 100 scale (0 no effect, 100 complete control), approx. 10 d; read-out: Ragweed plant response rating
Summary of the method: as §1

[5] = tested on: sedge, umbrella (small-flower umbrella sedge, Cyperus difformis); assay: Test B flooded paddy test; conditions: Cyperus difformis, 250 g ai/ha, Flood; 0 to 100 scale where 0 is no effect and 100 is complete control; read-out: Sedge, Umbrella plant response rating
Summary of the method: (§2)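 Rating scale 0–100 (visual, vs untreated controls) after a 13–15 d greenhouse period; application to the flood layer, 3 cm above soil and maintained; plants at 2-leaf stage when treated.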

rice (Oryra sativa) = assay: Test B flooded paddy test; conditions: Oryza sativa, 250 g ai/ha, Flood; 0 to 100 scale where 0 is no effect and 100 is complete control; read-out: Rice plant response rating
Summary of the method: as §2

[6] = tested on: barnyardgrass (Echinochloa crus-galli); assay: Test B flooded paddy test; conditions: Echinochloa crus-galli, 250 g ai/ha, Flood; 0 to 100 scale where 0 is no effect and 100 is complete control; read-out: Barnyardgrass plant response rating
Summary of the method: as §2

[7] = tested on: ducksalad (Heteranthera limosa); assay: Test B flooded paddy test; conditions: Heteranthera limosa, 250 g ai/ha, Flood; 0 to 100 scale where 0 is no effect and 100 is complete control; read-out: Ducksalad plant response rating
Summary of the method: as §2

[8] = tested on: giant foxtail (Setaria faberii); assay: Test A preemergence; conditions: Setaria faberi, pre-emergence, 240 h; for pest or weed control at 125 g/ha: 125 g ai/ha, Preemergence, visual injury rating after approximately 10 d, read-out: Foxtail, Giant plant response rating (0 to 100 scale, 0 is no effect, 100 is complete control); for pest or weed control at 500 g/ha: 500 g ai/ha, preemergence, visual injury rating about 10 d after treatment, 0 to 100 scale (0 no effect, 100 complete control), read-out: Foxtail, Giant plant response rating
Summary of the method: as §1

[9] = tested on: barnyardgrass (Echinochloa crus-galli); assay: Test A preemergence; conditions: Echinochloa crus-galli, pre-emergence, 240 h; for pest or weed control at 125 g/ha: 125 g ai/ha, Preemergence, visual injury rating after approximately 10 d, read-out: Barnyardgrass plant response rating (0 to 100 scale, 0 is no effect, 100 is complete control); for pest or weed control at 500 g/ha: 500 g ai/ha, preemergence, visual injury rating about 10 d after treatment, 0 to 100 scale (0 no effect, 100 complete control), read-out: Barnyardgrass plant response rating
Summary of the method: as §1

[10] = tested on: ryegrass, Italian (Italian ryegrass, Lolium multiflorum); assay: Test A preemergence; conditions: Lolium multiflorum, pre-emergence, 240 h; for pest or weed control at 125 g/ha: 125 g ai/ha, Preemergence, visual injury rating after approximately 10 d, read-out: Ryegrass, Italian plant response rating (0 to 100 scale, 0 is no effect, 100 is complete control); for pest or weed control at 500 g/ha: 500 g ai/ha, preemergence, visual injury rating about 10 d after treatment, 0 to 100 scale (0 no effect, 100 complete control), read-out: Ryegrass, Italian plant response rating
Summary of the method: as §1

[11] = tested on: ragweed (common ragweed, Ambrosia elatior); assay: Test A preemergence; conditions: Ambrosia artemisiifolia, pre-emergence, 240 h; for pest or weed control at 125 g/ha: 125 g ai/ha, Preemergence, visual injury rating after approximately 10 d, read-out: Ragweed plant response rating (0 to 100 scale, 0 is no effect, 100 is complete control); for pest or weed control at 500 g/ha: 500 g ai/ha, preemergence, visual injury rating about 10 d after treatment, 0 to 100 scale (0 no effect, 100 complete control), read-out: Ragweed plant response rating
Summary of the method: as §1

[12] = tested on: pigweed (Amaranthus retroflexus); assay: Test A preemergence; conditions: Amaranthus retroflexus, pre-emergence, 240 h; for pest or weed control at 125 g/ha: 125 g ai/ha, Preemergence, visual injury rating after approximately 10 d, read-out: Pigweed plant response rating (0 to 100 scale, 0 is no effect, 100 is complete control); for pest or weed control at 500 g/ha: 500 g ai/ha, preemergence, visual injury rating about 10 d after treatment, 0 to 100 scale (0 no effect, 100 complete control), read-out: Pigweed plant response rating
Kochia (Kochia scoparia) = assay: Test A preemergence; conditions: Bassia scoparia, pre-emergence, 240 h; for pest or weed control at 125 g/ha: 125 g ai/ha, Preemergence, visual injury rating after approximately 10 d, read-out: Kochia plant response rating (0 to 100 scale, 0 is no effect, 100 is complete control); for pest or weed control at 500 g/ha: 500 g ai/ha, preemergence, visual injury rating about 10 d after treatment, 0 to 100 scale (0 no effect, 100 complete control), read-out: Kochia plant response rating
Summary of the method: as §1

SMILES: Cc1ccc([C@H]2CN(C)C(=O)[C@@H]2C(=O)Nc2ccccc2F)cc1C [Compound 1038]
- plant injury at 125 g/ha [1]: 20%
- pest or weed control at 125 g/ha [2]: 90%
- pest or weed control at 500 g/ha [2]: 90%
- pest or weed control at 125 g/ha [3]: 20%
- pest or weed control at 125 g/ha [4]: 0%
- pest or weed control at 250 g/ha [5]: 0%
- pest or weed control at 250 g/ha (rice (Oryra sativa)): 0%
- pest or weed control at 250 g/ha [6]: 65%
- pest or weed control at 250 g/ha [7]: 100%
- pest or weed control at 125 g/ha [8]: 100%
- pest or weed control at 500 g/ha [8]: 100%
- pest or weed control at 125 g/ha [9]: 100%
- pest or weed control at 500 g/ha [9]: 100%
- pest or weed control at 125 g/ha [10]: 30%
- pest or weed control at 500 g/ha [10]: 70%
- pest or weed control at 125 g/ha [11]: 20%
- pest or weed control at 500 g/ha [11]: 70%
- pest or weed control at 125 g/ha [12]: 20%
- pest or weed control at 500 g/ha [12]: 30%
- pest or weed control at 125 g/ha (Kochia (Kochia scoparia)): 80%
- pest or weed control at 500 g/ha (Kochia (Kochia scoparia)): 80%

SMILES: Cc1cc([C@H]2CNC(=O)[C@@H]2C(=O)Nc2ccccc2F)ccc1C(F)(F)F [Compound 1042]
- plant injury at 125 g/ha [1]: 0%
- pest or weed control at 125 g/ha [2]: 80%
- pest or weed control at 500 g/ha [2]: 90%
- pest or weed control at 125 g/ha [3]: 30%
- pest or weed control at 125 g/ha [4]: 0%
- pest or weed control at 250 g/ha [5]: 0%
- pest or weed control at 250 g/ha (rice (Oryra sativa)): 0%
- pest or weed control at 250 g/ha [6]: 30%
- pest or weed control at 250 g/ha [7]: 75%
- pest or weed control at 125 g/ha [8]: 90%
- pest or weed control at 500 g/ha [8]: 90%
- pest or weed control at 125 g/ha [9]: 90%
- pest or weed control at 500 g/ha [9]: 90%
- pest or weed control at 125 g/ha [10]: 30%
- pest or weed control at 500 g/ha [10]: 50%
- pest or weed control at 125 g/ha [11]: 20%
- pest or weed control at 500 g/ha [11]: 40%
- pest or weed control at 125 g/ha [12]: 30%
- pest or weed control at 500 g/ha [12]: 50%
- pest or weed control at 125 g/ha (Kochia (Kochia scoparia)): 20%
- pest or weed control at 500 g/ha (Kochia (Kochia scoparia)): 70%

SMILES: Cc1cc([C@H]2CNC(=O)[C@@H]2C(=O)Nc2ccccc2Cl)ccc1C(F)(F)F [Compound 1044]
- plant injury at 125 g/ha [1]: 0%
- pest or weed control at 125 g/ha [2]: 60%
- pest or weed control at 500 g/ha [2]: 90%
- pest or weed control at 125 g/ha [3]: 0%
- pest or weed control at 125 g/ha [4]: 20%
- pest or weed control at 250 g/ha [5]: 0%
- pest or weed control at 250 g/ha (rice (Oryra sativa)): 0%
- pest or weed control at 250 g/ha [6]: 0%
- pest or weed control at 250 g/ha [7]: 0%
- pest or weed control at 125 g/ha [8]: 70%
- pest or weed control at 500 g/ha [8]: 90%
- pest or weed control at 125 g/ha [9]: 90%
- pest or weed control at 500 g/ha [9]: 90%
- pest or weed control at 125 g/ha [10]: 0%
- pest or weed control at 500 g/ha [10]: 50%
- pest or weed control at 125 g/ha [11]: 0%
- pest or weed control at 500 g/ha [11]: 30%
- pest or weed control at 125 g/ha [12]: 0%
- pest or weed control at 500 g/ha [12]: 30%
- pest or weed control at 125 g/ha (Kochia (Kochia scoparia)): 0%
- pest or weed control at 500 g/ha (Kochia (Kochia scoparia)): 50%

SMILES: O=C1NC[C@H](c2ccc3c(c2)CCC3)[C@H]1C(=O)Nc1ccccc1F [Compound 1045]
- plant injury at 125 g/ha [1]: 20%
- pest or weed control at 125 g/ha [2]: 60%
- pest or weed control at 500 g/ha [2]: 90%
- pest or weed control at 125 g/ha [3]: 50%
- pest or weed control at 125 g/ha [4]: 30%
- pest or weed control at 250 g/ha [5]: 0%
- pest or weed control at 250 g/ha (rice (Oryra sativa)): 0%
- pest or weed control at 250 g/ha [6]: 75%
- pest or weed control at 250 g/ha [7]: 100%
- pest or weed control at 125 g/ha [8]: 80%
- pest or weed control at 500 g/ha [8]: 90%
- pest or weed control at 125 g/ha [9]: 90%
- pest or weed control at 500 g/ha [9]: 90%
- pest or weed control at 125 g/ha [10]: 30%
- pest or weed control at 500 g/ha [10]: 70%
- pest or weed control at 125 g/ha [11]: 0%
- pest or weed control at 500 g/ha [11]: 30%
- pest or weed control at 125 g/ha [12]: 0%
- pest or weed control at 500 g/ha [12]: 0%
- pest or weed control at 125 g/ha (Kochia (Kochia scoparia)): 0%
- pest or weed control at 500 g/ha (Kochia (Kochia scoparia)): 20%

SMILES: O=C1NC[C@H](c2ccc3c(c2)CCC3)[C@H]1C(=O)Nc1cccc(F)c1F [Compound 1046]
- plant injury at 125 g/ha [1]: 20%
- pest or weed control at 125 g/ha [2]: 60%
- pest or weed control at 500 g/ha [2]: 90%
- pest or weed control at 125 g/ha [3]: 40%
- pest or weed control at 125 g/ha [4]: 0%
- pest or weed control at 250 g/ha [5]: 0%
- pest or weed control at 250 g/ha (rice (Oryra sativa)): 0%
- pest or weed control at 250 g/ha [6]: 60%
- pest or weed control at 250 g/ha [7]: 100%
- pest or weed control at 125 g/ha [8]: 80%
- pest or weed control at 500 g/ha [8]: 90%
- pest or weed control at 125 g/ha [9]: 90%
- pest or weed control at 500 g/ha [9]: 90%
- pest or weed control at 125 g/ha [10]: 60%
- pest or weed control at 500 g/ha [10]: 60%
- pest or weed control at 125 g/ha [11]: 40%
- pest or weed control at 500 g/ha [11]: 70%
- pest or weed control at 125 g/ha [12]: 0%
- pest or weed control at 500 g/ha [12]: 0%
- pest or weed control at 125 g/ha (Kochia (Kochia scoparia)): 60%
- pest or weed control at 500 g/ha (Kochia (Kochia scoparia)): 70%
